Data published in patent US4875922A, “Pyrimidine derivatives” (Imperial Chemical Industries PLC, priority 1986, dated 1989).

Legend:
[1] = system: Rice; assay: Intermediate Retardant Test, rice; assay type: in vivo, Rice (Ishikari); conditions: Oryza sativa, 672 h, overall spray, approximately 28 days, Table VI, read-out: Percentage Reduction in Height of Rice (Compared to formulation blank)
Source text: (§1) Three species are involved in this test RICE, SPRING-BARLEY and APPLES. The variety and growth stages at spray are outlined in Table V. Compounds were applied at 500 ppm and 2000 ppm respectively (0.5 kg and 2 kg/ha^-1 at a field volume of 1000 l/ha^-1) as an overall spray except in the case of certain tests on APPLES. This gives a foliar and root component in the test, i.e., this test will detect the activity of both root and foliar acting compounds. The intermediate retardant test on APPLES of which the results are given in Table IX was different, in that a foliar (only) spray at 2000 ppm was compared with a root drench, also at 2000 ppm. The rice was grown in 4" `paddy` pots, i.e., the roots and bottom of the stems are immersed in water under conditions corresponding to those in paddy fields. Spring barley and apples were grown in 4" pots. The plants were assessed for height to top-most ligule at approximately 28 days after treatment for spring barley and rice and for height to apex at approximately 28 days after the treatment for apples. In each case the result for the 500 ppm and 2000 ppm test for each compound is compared to the height of the formulation blank in that test, presented as a percentage reduction in height compared to the formulation blank.
(§2) The prior art compound was compared with compounds of the present invention in side-by-side comparisons using the Intermediate Retardant Test described in Example 62, and the results are given in Tables X to XII where `A` is the prior art compound, 2-methyl-1-isopropyl-1-(pyrimidin-5-yl)-propan-1-ol).

[2] = system: Rice; assay: Whole plant screen for plant growth regulator activity, rice (RC); assay type: in vivo, Rice (Ishikari); conditions: 4000 ppm (4 kg/ha), visual score after 2-6 weeks
Protocol: (§3) Compounds 1 to 3 in Table 1 were tested for plant growth regulator activity against five species for various growth effects relevant to plant growth regulation.
(§4) The plant species used in this screen are presented in Table II with the leaf stage at which they were sprayed. Each chemical was applied at 4000 ppm (4 kg/ha in a 1000 l/ha field volume) using a tracksprayer and a SS8004E (Teejet) nozzle.
(§5) After spray the plants were grown in a glasshouse with 25° C. day/22° C. night temperatures and supplementary lighting was supplied when necessary (from mercury vapour lamps), to provide a 16 hour photoperiod. The exception to this were the temperate cereals, wheat and barley which were grown in 16° C. day/13° C. night temperatures.
(§6) After 2-6 weeks in the glasshouse, depending on the time of year, the plants were visually assessed for morphological characteristics. Formulation blanks were used as controls to assess the plants.
(§7) Additional compounds in Table I were tested for plant growth regulator activity using the method of Example 60 except that Tomato was included in the test as an additional species. Tomato, Ailsa Craig, was grown in a single 3 inch pot in peat and treated at the 2 to 21/2 leaves growth stage. The results were presented in Table IV in which Tomato is indicated by the code TO and the Key is otherwise as for Table III.

[3] = system: Barley; assay: Whole plant screen for plant growth regulator activity, barley (BR); assay type: in vivo, Barley (Atem); conditions: BR, 4000 ppm (4 kg/ha), visual score after 2-6 weeks; for T = Tillering or side shooting: * = decrease in tillering
In short: (§8)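 Visual assessment of morphological characteristics, 2-6 weeks after treatment, relative to formulation-blank controls. Plants had received a 4000 ppm tracksprayer application (4 kg/ha at 1000 l/ha) and were grown under supplementary lighting giving 16 h days, with the temperate cereals wheat and barley cooler (16/13° C.) than maize and rice (25/22° C.).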

[4] = system: Spring Barley; assay: Intermediate Retardant Test, spring barley; assay type: in vivo, Spring Barley (Atem/kym); conditions: Hordeum vulgare, 672 h, overall spray, approximately 28 days, Table VII, read-out: Percentage Reduction in Height of Spring Barley (Compared to formulation blank)
Source text: as §1, §2

[5] = system: Tomato; assay: Whole plant screen for plant growth regulator activity, tomato (TO); assay type: in vivo, Tomato (Ailsa Craig); conditions: 4000 ppm (4 kg/ha), visual score after 2-6 weeks
In short: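 Tomato (Ailsa Craig), one plant per 3-inch peat pot, sprayed at 2–2½ leaves with 4000 ppm (4 kg/ha in 1000 l/ha) by track sprayer. Glasshouse 25 °C day/22 °C night, 16 h photoperiod; morphology visually scored after 2–6 weeks against formulation blanks.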

[6] = system: Wheat; assay: Whole plant screen for plant growth regulator activity, wheat (WW); assay type: in vivo, Wheat (Timmo); conditions: WW, 4000 ppm (4 kg/ha), visual score after 2-6 weeks; for T = Tillering or side shooting: * = decrease in tillering
In short: as §8

[7] = system: Maize; assay: Whole plant screen for plant growth regulator activity, maize (MZ); assay type: in vivo, Maize (Earliking); conditions: 4000 ppm (4 kg/ha), visual score after 2-6 weeks
Protocol: as §3, §4, §5
After 2-6 weeks in the glasshouse, depending on the time of year, the plants were visually assessed for morphological characteristics. Formulation blanks were used as controls to assess the plants. […]

[8] = system: Apple; assay: Whole plant screen for plant growth regulator activity, apple (AP); assay type: in vivo, Apple (Red Delicious); conditions: 4000 ppm (4 kg/ha), visual score after 2-6 weeks
Protocol: as §3, §4, §5, §6, §7

[9] = system: Apples; assay: Intermediate Retardant Test, apples, foliar spray compared with root drench; assay type: in vivo, Apples (Red Delicious); conditions: 672 h, approximately 28 days, Table IX, read-out: Percentage Reduction in Height of Apples (Compared to formulation blank); for percent reduction in plant height at 2000 ppm: 2000 ppm (Foliar); for percent reduction in plant height at 2000 µg/mL: soil, 2000 pmm (Root), root drench
Source text: as §1, §2

Row | Structure (SMILES) | Percent reduction in rice height vs formulation blank at 500 ppm [1] [%] | Percent reduction in rice height vs formulation blank at 2000 ppm [1] [%] | I = Interligular or internodal length reduction [2] | R = Retardation [2] | G = Greening effect [3] | I = Interligular or internodal length reduction [3] | R = Retardation [3] | T = Tillering or side shooting [3] | percent reduction in plant height at 500 ppm [4] [%] | percent reduction in plant height at 2000 ppm [4] [%] | G = Greening effect [5] | I = Interligular or internodal length reduction [5] | R = Retardation [5] | G = Greening effect [6] | I = Interligular or internodal length reduction [6] | R = Retardation [6] | T = Tillering or side shooting [6] | G = Greening effect [7] | percent reduction in plant height at 2000 ppm [9] [%] | percent reduction in plant height at 2000 µg/mL [9] [%] | also measured
1 | CCCC#CC(O)(c1cncnc1)C(C)(C)C (stereo not shown) [Compound 14, 2,2-Dimethyl-1-(pent-1-yne)-1-(pyrimidin-5yl)propan-1ol] | 63 | 76 | 2 (31-60%) | 3 (61-100%) | 2 (31-60%) | 3 (61-100%) | 3 (61-100%) | 3 (61-100%) | 51 | 68 | 2 (31-60%) | 2 (31-60%) | 3 (61-100%) | 2 (31-60%) | 3 (61-100%) | 3 (61-100%) | 3 (61-100%) | 2 (31-60%) | 23 | 58.5 | G = Greening effect [2]: 2 (31-60%); A = Apical damage [7]: 1 (10-30%); I = Interligular or internodal length reduction [7]: 3 (61-100%); R = Retardation [7]: 2 (31-60%); G = Greening effect [8]: 3 (61-100%); I = Interligular or internodal length reduction [8]: 3 (61-100%); R = Retardation [8]: 3 (61-100%); T = Tillering or side shooting ([8]; * = decrease in tillering): 1 (10-30%)
2 | CC(C)C(O)(C#CCCCCl)c1cncnc1 (stereo not shown) [Compound 8, 2-Methyl-1-(5-chloropen-1-yne)-1-(pyrimidin-5-yl)-propan-1-ol] | 43 | 54 |  |  | 2 (31-60%) | 2 (31-60%) | 3 (61-100%) | 1 (10-30%) | 31 | 63 | 2 (31-60%) | 3 (61-100%) | 3 (61-100%) | 2 (31-60%) | 3 (61-100%) | 3 (61-100%) | 3 (61-100%) | 1 (10-30%) | 6 | 49.3 | I = Interligular or internodal length reduction [7]: 3 (61-100%); R = Retardation [7]: 3 (61-100%); T = Tillering or side shooting ([7]; * = decrease in tillering): 1 (10-30%); G = Greening effect [8]: 2 (31-60%); I = Interligular or internodal length reduction [8]: 3 (61-100%); R = Retardation [8]: 3 (61-100%)
3 | CCC(C)CCC(O)(c1cncnc1)C(C)C (stereo not shown) [Compound 6, 2-Methyl-1-(3-methylpentyl)-1-(pyrimidin-5-yl)propan-1-ol] | 26 | 50 | 2 (31-60%) | 2 (31-60%) | 1 (10-30%) | 3 (61-100%) | 2 (31-60%) |  | 22 | 57 | 2 (31-60%) | 2 (31-60%) | 2 (31-60%) |  | 3 (61-100%) | 3 (61-100%) | 1 (10-30%) | 1 (10-30%) | 18.8 | 72.1 | I = Interligular or internodal length reduction [7]: 2 (31-60%); R = Retardation [7]: 2 (31-60%)
4 | CC(C)CCC#CC(O)(c1cncnc1)C(C)C (stereo not shown) [Compound 12, 2-Methyl-1-(5-methylhex-1-yne)-1-(pyrimidin-5-yl)-propan-1-ol] | 5 | 8 | 2 (31-60%) | 2 (31-60%) | 2 (31-60%) | 3 (61-100%) | 2 (31-60%) | 3 (61-100%) | 3 | 19 | 1 (10-30%) |  |  | 1 (10-30%) | 2 (31-60%) | 2 (31-60%) | 1 (10-30%) |  | 2 | 58 | G = Greening effect [2]: 1 (10-30%); T = Tillering or side shooting ([2]; * = decrease in tillering): 1 (10-30%); G = Greening effect [8]: 1 (10-30%); I = Interligular or internodal length reduction [8]: 3 (61-100%); R = Retardation [8]: 2 (31-60%)
